# Experimental data reported in patent US20220145406A1, “BIOMARKERS, AND USES IN TREATMENT OF VIRAL INFECTIONS, INFLAMMATIONS, OR CANCER” (ABIVAX, priority 2018, published 2022).
# Values joined by “and” are separate entries in the source; they are usually repeats but may differ in a detail not shown here. Equal values may be shown once.
# System: miR-124 (miR-124-1, miR-124-2, miR-124-3 loci)
# Test: RNA CaptureSeq read counts at the miR-124 loci in PBMCs
# Format: cell-based, human
# Conditions: PBMCs treated with ABX464
# Method: Total RNA was extracted from infected and uninfected PBMC samples using TRIzol reagent (Invitrogen) following the manufacturer's protocol. The RNA concentrations and purity were determined using the RNA 6000 Bioanalyzer kit (Agilent). For cDNA synthesis, 1 μg of total RNA was treated with DNase I (Invitrogen) and then utilized as a template for reverse transcription using the Verso cDNA kit with a blend of random hexamers and anchored oligo-dT (Thermo Scientific), according to the manufacturer's instructions. After KAPA Hyper Prep (ROCHE) library preparation from 1 μg total RNA, we proceeded with SeqCap EZ capture (ROCHE) following the manufacturer's recommendations. Hybrid selection was performed with a custom SeqCap EZ Choice Library (Roche NimbleGen) containing the following regions; chromosome 8 (9,760,617 to 9,761,780 and 65,285,285 to 65,296,944). chromosome 20 (61,797,549 to 61,812,855), chromosome 1 (1,102,000 to 1,106,000), chromosome 13 (92,000,074 to 92,006,833), chromosome 15 (22,512,831 to […]) and the genome of the HIV Ada8 strain. This library was designed through the NimbleDesign portal (v1.2.R1) using genome build hg19 NCBI Build 37.1/GRCh37. Sequencing was performed on a NextSeq 500 (Illumina) with 18 samples on a HighOutput Cartridge (2×400 million reads of 75 bases each).
# miR-124 is encoded from three independent genes, miR-124-1, miR-124-2, and miR-124-3, located on human chromosomes 8 and 20 (FIG. 4A). To determine which of these genes is induced by ABX464, we employed targeted RNA CaptureSeq to assess the full depth of the transcriptome. […] The total number of reads for untreated as well as ABX464 treated samples varied between 2 and 30 million in infected and uninfected PBMCs (Table V). The number of reads from the three loci encoding miR-124 in the treated samples were 4- to 12-fold higher than in the untreated samples (FIG. 4B, Table V), confirming that ABX464 led to a large increase in miR-124. […]
structure (smiles),measurement,setting,value
"FC(F)(F)Oc1ccc(Nc2ccc3cccc(Cl)c3n2)cc1 [ABX464, 8-chloro-N-(4-(trifluoromethoxy)phenyl)quinolin-2-amine]",read counts mir124.2,one value per donor library,704 and 4 and 4222 and 362 and 2326 and 5452
same,read counts mir124.3,one value per donor library,6439 and 701 and 21941 and 2542 and 14460 and 7772
same,read counts mir124.1,"one value per donor library (D1, D4-D8)",4014 and 7114 and 4748 and 324 and 2486 and 1088
